The series can be described thus: logP determination by HPLC on a reverse-phase column (EEC Directive 79/831 Annex V.A8). Format: physicochemical. The note with it: reverse-phase HPLC column (C 18); acidic range pH 2.3; 0.1% aqueous phosphoric acid and acetonitrile, linear gradient 10% to 90% acetonitrile; C 18 column; 43° C. The method, then: The logP values given in the Tables and Preparation Examples above are determined in accordance with EEC Directive 79/831 Annex V.A8 by HPLC (High Performance Liquid Chromatography) on a reverse-phase column (C 18). Temperature: 43° C. The determination is carried out in the acidic range at pH 2.3 using the mobile phases 0.1% aqueous phosphoric acid and acetonitrile; linear gradient from 10% acetonitrile to 90% acetonitrile. Calibration is carried out using unbranched alkan-2-ones (having 3 to 16 carbon atoms), with known logP values (determination of the logP values by the retention times using linear interpolation between two successive alkanones).
As usually defined, the chromatographic logP is lipophilicity estimated from chromatographic retention. Higher therefore signals higher lipophilicity. On to `O=C(Nc1ccsc1-c1ccc(Br)cn1)c1cccnc1Cl` [Example 1, N-[2-(5-bromopyridin-2-yl)-3-thienyl]-2-chloronicotinamide], for which the chromatographic logP is 2.25.

The compound `Nc1ccsc1-c1ccc(Br)cn1` [Example (III-1), 2-(5-bromopyridin-2-yl)thiophene-3-amine] returned a chromatographic logP of 0.87.

In turn, `CC(C)(C)OC(=O)Nc1ccsc1-c1ccc(Br)cn1` [Example (III-a-1), tert-butyl[2-(5-bromopyridin-2-yl)-3-thienyl]carbamate] had a chromatographic logP of 3.27.

The compound `CC(C)(C)OC(=O)Nc1ccsc1I` [Example (VI-1), tert-butyl (2-iodo-3-thienyl)carbamate] came in with a chromatographic logP of 2.43.
